Source: ChEMBL document CHEMBL1201862, “PubChem BioAssay data set” (2004)
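Values below derive from 48-hour exposures of cells grown in 96-well plates, with endpoints linearly interpolated between the two concentrations bracketing the appropriate inhibition level. GI50 is the concentration that inhibits growth by half.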 Activity calls are given as the source filed them. Cut-off read from the data, not from the text of the source: active = GI50 up to about 1.1 µM and inactive = higher.

Assays:
Assay in all cases: growth of human tumour cells (NCI), 48 h
A549 = test system: A549
HCC 2998 = test system: HCC 2998
IGROV-1 = test system: IGROV-1
K562 = test system: K562
KM12 = test system: KM12
NCI-H522 = test system: NCI-H522
OVCAR-4 = test system: OVCAR-4
OVCAR-5 = test system: OVCAR-5
SF-295 = test system: SF-295
SN12C = test system: SN12C
SNB-75 = test system: SNB-75
SR = test system: SR
TK-10 = test system: TK-10
COLO 205 = test system: COLO 205
DU-145 = test system: DU-145
MCF7 = test system: MCF7
MDA-MB-231 = test system: MDA-MB-231
MDA-MB-435 = test system: MDA-MB-435
NCI/ADR-RES = test system: NCI/ADR-RES

SMILES | GI50 (A549) | GI50 (HCC 2998) | GI50 (IGROV-1) | GI50 (K562) | GI50 (KM12) | GI50 (NCI-H522) | GI50 (OVCAR-4) | GI50 (OVCAR-5) | GI50 (SF-295) | GI50 (SN12C) | GI50 (SNB-75) | GI50 (SR) | GI50 (TK-10) | GI50 (COLO 205) | GI50 (DU-145) | GI50 (MCF7) | GI50 (MDA-MB-231) | GI50 (MDA-MB-435) | GI50 (NCI/ADR-RES)
c1ccc(OCc2nnc3n2N=C(c2ccccc2)CS3)cc1 | > 100 µM (inactive) | > 100 µM (inactive) | > 100 µM (inactive) | > 100 µM (inactive) | > 100 µM (inactive) | 55.5 µM (inactive) | > 100 µM (inactive) | > 100 µM (inactive) | > 100 µM (inactive) | > 100 µM (inactive) | 33 µM (inactive) | > 100 µM (inactive) | > 100 µM (inactive) |  |  |  |  |  | 
Nc1ncnc2c(C3OC(CO)C(O)C3O)scc12 (stereo not given) | 0.00721 µM (active) | 0.00504 µM (active) | 0.513 µM (active) | 0.00262 µM (active) | < 0.001 µM (active) | 0.0107 µM (active) | 0.0468 µM (active) | 0.0222 µM (active) | 0.129 µM (active) | 0.373 µM (active) | 0.459 µM (active) | 0.319 µM (active) | 0.191 µM (active) | 0.026 µM (active) |  |  |  |  | 
O=C(Nc1cc(Cl)ccc1Cl)C(=O)C(c1cnc2ccccc2n1)[N+](=O)[O-] (stereo not given) | > 100 µM (inactive) | > 100 µM (inactive) | > 100 µM (inactive) | > 100 µM (inactive) | > 100 µM (inactive) | 85.1 µM (inactive) | > 100 µM (inactive) | > 100 µM (inactive) | > 100 µM (inactive) | > 100 µM (inactive) | > 100 µM (inactive) | > 100 µM (inactive) | > 100 µM (inactive) | > 100 µM (inactive) |  |  |  |  | 
O=[N+]([O-])c1ccc2nc(/C(=N\Nc3ccccc3)C(O)c3ccc4c(c3)OCO4)c(O)nc2c1 (stereo not given) | > 100 µM (inactive) | 75.2 µM (inactive) | 7.74 µM (inactive) | 36.4 µM (inactive) | 41.6 µM (inactive) | 39 µM (inactive) | > 100 µM (inactive) |  | > 100 µM (inactive) | > 100 µM (inactive) | 60 µM (inactive) | 91.6 µM (inactive) | > 100 µM (inactive) | > 100 µM (inactive) |  |  |  |  | 
CC1=CC(=O)N2[C@H](OC[C@@H]2C(C)C)O1 | > 100 µM (inactive) |  | > 100 µM (inactive) | > 100 µM (inactive) | > 100 µM (inactive) | > 100 µM (inactive) | > 100 µM (inactive) |  | > 100 µM (inactive) | > 100 µM (inactive) | > 100 µM (inactive) | > 100 µM (inactive) | > 100 µM (inactive) | > 100 µM (inactive) |  |  |  |  | 
Cc1ccc(N2C(=O)/C(=C/c3ccc(N(CCC#N)CCC#N)cc3)N=C2COc2ccc(Cl)cc2Cl)cc1 | > 100 µM (inactive) |  | > 100 µM (inactive) | > 100 µM (inactive) | > 100 µM (inactive) | > 100 µM (inactive) | > 100 µM (inactive) | > 100 µM (inactive) | > 100 µM (inactive) | > 100 µM (inactive) | > 100 µM (inactive) | > 100 µM (inactive) | > 100 µM (inactive) | > 100 µM (inactive) |  |  |  |  | 
N#C/N=C(\N)NCCO | > 100 µM (inactive) | > 100 µM (inactive) | > 100 µM (inactive) | > 100 µM (inactive) | > 100 µM (inactive) | > 100 µM (inactive) | > 100 µM (inactive) | > 100 µM (inactive) | > 100 µM (inactive) | > 100 µM (inactive) | > 100 µM (inactive) | 30.7 µM (inactive) | > 100 µM (inactive) | 52.2 µM (inactive) |  |  |  |  | 
C/N=c1\ss/c(=N\C(=S)N(C)C)n1C1CCCCC1 | > 31.6 µM (inactive) | > 31.6 µM (inactive) | > 31.6 µM (inactive) | > 31.6 µM (inactive) | > 31.6 µM (inactive) | > 31.6 µM (inactive) | > 31.6 µM (inactive) | > 31.6 µM (inactive) | > 31.6 µM (inactive) | > 31.6 µM (inactive) | > 10 µM (inactive) |  | > 31.6 µM (inactive) | > 31.6 µM (inactive) |  |  |  |  | 
Oc1cc(Cl)ncn1 | > 100 µM (inactive) | > 100 µM (inactive) | > 100 µM (inactive) | > 100 µM (inactive) | > 100 µM (inactive) | > 100 µM (inactive) | > 100 µM (inactive) | > 100 µM (inactive) | > 100 µM (inactive) | > 100 µM (inactive) | > 100 µM (inactive) |  | > 100 µM (inactive) | > 100 µM (inactive) |  |  |  |  | 
COC(=O)/C(=C(/C)c1ccco1)P(=O)(OC)OC | > 100 µM (inactive) | > 100 µM (inactive) | > 100 µM (inactive) |  | > 100 µM (inactive) | > 100 µM (inactive) | > 100 µM (inactive) | > 100 µM (inactive) | > 100 µM (inactive) | > 100 µM (inactive) | > 100 µM (inactive) | > 100 µM (inactive) | > 100 µM (inactive) | > 100 µM (inactive) | > 100 µM (inactive) | > 100 µM (inactive) | > 100 µM (inactive) | > 100 µM (inactive) | > 100 µM (inactive)
CC(C)CCS(=O)(=O)OCCCCOS(=O)(=O)CCC(C)C | > 100 µM (inactive) | > 100 µM (inactive) | > 100 µM (inactive) | > 100 µM (inactive) | > 100 µM (inactive) | > 100 µM (inactive) |  |  | > 100 µM (inactive) | > 100 µM (inactive) | > 100 µM (inactive) | > 100 µM (inactive) | > 100 µM (inactive) | > 100 µM (inactive) |  |  |  |  | 
CC(C)C(NCc1c2ccccc2nc2ccccc12)C(=O)O (stereo not given) | 74.6 µM (inactive) | 47.9 µM (inactive) | 27.4 µM (inactive) | 32.6 µM (inactive) | 33.3 µM (inactive) | 22 µM (inactive) | 15 µM (inactive) | > 100 µM (inactive) | 81.5 µM (inactive) | 50 µM (inactive) | 61.8 µM (inactive) | 20.6 µM (inactive) | > 100 µM (inactive) | 72.8 µM (inactive) |  |  |  |  | 
NNC(=O)/C(NC(=O)c1ccccc1)=C(\N)c1ccc(Cl)cc1 | > 100 µM (inactive) | > 100 µM (inactive) | > 100 µM (inactive) | 89.3 µM (inactive) | > 100 µM (inactive) | 61.1 µM (inactive) | > 100 µM (inactive) | > 100 µM (inactive) | > 100 µM (inactive) | > 100 µM (inactive) | > 100 µM (inactive) | 83.8 µM (inactive) | > 100 µM (inactive) | > 100 µM (inactive) |  |  |  |  | 
CC1=C2[C@H](c3ccccc3)C3C=CC2(c2ccccc23)N(C(=O)C(c2ccccc2)c2ccccc2)C1=O (stereo not given in full) | > 100 µM (inactive) | > 100 µM (inactive) | > 100 µM (inactive) | > 100 µM (inactive) | > 100 µM (inactive) |  | > 100 µM (inactive) | > 100 µM (inactive) | > 100 µM (inactive) | > 100 µM (inactive) | > 100 µM (inactive) | > 100 µM (inactive) | > 100 µM (inactive) | > 100 µM (inactive) |  |  |  |  | 
c1ccc(C2=NOC3(c4ccccc4)SC4CCCCC4CN23)cc1 (stereo not given) | 20.5 µM (inactive) | 55.1 µM (inactive) | 14.7 µM (inactive) | 20.2 µM (inactive) | 25.5 µM (inactive) | 9.42 µM (inactive) | 45 µM (inactive) | > 100 µM (inactive) | 28.1 µM (inactive) | 52.5 µM (inactive) | 18.2 µM (inactive) | 25 µM (inactive) | 83.9 µM (inactive) | 27.6 µM (inactive) |  |  |  |  | 
COc1ccc2c(c1)[n+]([O-])c(-c1ccc(C)cc1)c(N)[n+]2[O-] | 55.3 µM (inactive) |  | 43.3 µM (inactive) | 67.1 µM (inactive) | 44.8 µM (inactive) | 16.3 µM (inactive) | 88.7 µM (inactive) | 66.5 µM (inactive) | > 100 µM (inactive) | > 100 µM (inactive) | 45.1 µM (inactive) | > 100 µM (inactive) |  | 20.2 µM (inactive) |  |  |  |  | 
COc1cc(/C=C/C(=O)c2cccc3ccccc23)cc(OC)c1OC | 8.18 µM (inactive) | 15 µM (inactive) | 15.4 µM (inactive) | 3.02 µM (inactive) | 4.06 µM (inactive) | 4.68 µM (inactive) | 6.41 µM (inactive) | 14.2 µM (inactive) | 10.1 µM (inactive) | 3.39 µM (inactive) | 10.3 µM (inactive) | 3.13 µM (inactive) | 14.2 µM (inactive) |  |  |  |  |  | 
CC(C)(c1ccc(OC#N)cc1)c1ccc(OC#N)cc1 | > 100 µM (inactive) | > 100 µM (inactive) | > 100 µM (inactive) | > 70 µM (inactive) | > 100 µM (inactive) | 23.2 µM (inactive) | > 100 µM (inactive) | > 100 µM (inactive) | > 100 µM (inactive) | > 100 µM (inactive) | > 52.5 µM (inactive) | 27 µM (inactive) | > 100 µM (inactive) | > 46.6 µM (inactive) |  |  |  |  | 
N#CC1(C#N)C(c2ccc(C3C(C#N)(C#N)C3(C#N)C#N)cc2)C1(C#N)C#N | > 100 µM (inactive) | > 100 µM (inactive) | > 100 µM (inactive) | > 100 µM (inactive) | > 100 µM (inactive) | 58.3 µM (inactive) | > 100 µM (inactive) | > 100 µM (inactive) | > 100 µM (inactive) | > 100 µM (inactive) | > 100 µM (inactive) |  | > 100 µM (inactive) | > 100 µM (inactive) |  |  |  |  | 
Nc1cc(C(=O)NC2C3CC4CC(C3)CC2C4)nc(S)n1 (stereo not given) | > 100 µM (inactive) | > 100 µM (inactive) | > 100 µM (inactive) | > 100 µM (inactive) |  | > 100 µM (inactive) | > 100 µM (inactive) |  |  | > 100 µM (inactive) | > 100 µM (inactive) | > 100 µM (inactive) |  |  |  |  |  |  | 
